Data published in paper PMC5412920 (Journal of Clinical Pharmacology, 2016).
Like-named read-outs stand apart in the source and are kept apart here.

Columns and labels:
[1] = assay type: in vivo, human; details: renal impairment study; largely below the lower limit of quantification
[2] = assay type: in vivo, human; details: hepatic impairment study; largely below the lower limit of quantification
MEK1 = details: cited from earlier work

Cn1cnc2c(F)c(Nc3ccc(Br)cc3Cl)c(C(N)=O)cc21 [selumetinib amide]
plasma concentrations [1]: < 2 ng/mL
plasma concentrations [2]: < 2 ng/mL
less active than selumetinib (MEK1): up to 50 fold
